From paper PMC9908924, “Accelerating inhibitor discovery for deubiquitinating enzymes” (Nature Communications, 2023)
pIC50: −log10 of the molar value.

What was measured:
VCPIP1 = biological target: T1, VCPIP1 (Homo sapiens, UniProt Q96JH7); assay: targeted cysteine chemoproteomics (PRM-LIVE); type: biochemical; conditions: covalent (catalytic cysteine); 50 µM compound in cell extract
T1 construct: endogenous full-length protein in HEK293 / HEK293T cell extract
T1 sequence (Q96JH7 1-1222): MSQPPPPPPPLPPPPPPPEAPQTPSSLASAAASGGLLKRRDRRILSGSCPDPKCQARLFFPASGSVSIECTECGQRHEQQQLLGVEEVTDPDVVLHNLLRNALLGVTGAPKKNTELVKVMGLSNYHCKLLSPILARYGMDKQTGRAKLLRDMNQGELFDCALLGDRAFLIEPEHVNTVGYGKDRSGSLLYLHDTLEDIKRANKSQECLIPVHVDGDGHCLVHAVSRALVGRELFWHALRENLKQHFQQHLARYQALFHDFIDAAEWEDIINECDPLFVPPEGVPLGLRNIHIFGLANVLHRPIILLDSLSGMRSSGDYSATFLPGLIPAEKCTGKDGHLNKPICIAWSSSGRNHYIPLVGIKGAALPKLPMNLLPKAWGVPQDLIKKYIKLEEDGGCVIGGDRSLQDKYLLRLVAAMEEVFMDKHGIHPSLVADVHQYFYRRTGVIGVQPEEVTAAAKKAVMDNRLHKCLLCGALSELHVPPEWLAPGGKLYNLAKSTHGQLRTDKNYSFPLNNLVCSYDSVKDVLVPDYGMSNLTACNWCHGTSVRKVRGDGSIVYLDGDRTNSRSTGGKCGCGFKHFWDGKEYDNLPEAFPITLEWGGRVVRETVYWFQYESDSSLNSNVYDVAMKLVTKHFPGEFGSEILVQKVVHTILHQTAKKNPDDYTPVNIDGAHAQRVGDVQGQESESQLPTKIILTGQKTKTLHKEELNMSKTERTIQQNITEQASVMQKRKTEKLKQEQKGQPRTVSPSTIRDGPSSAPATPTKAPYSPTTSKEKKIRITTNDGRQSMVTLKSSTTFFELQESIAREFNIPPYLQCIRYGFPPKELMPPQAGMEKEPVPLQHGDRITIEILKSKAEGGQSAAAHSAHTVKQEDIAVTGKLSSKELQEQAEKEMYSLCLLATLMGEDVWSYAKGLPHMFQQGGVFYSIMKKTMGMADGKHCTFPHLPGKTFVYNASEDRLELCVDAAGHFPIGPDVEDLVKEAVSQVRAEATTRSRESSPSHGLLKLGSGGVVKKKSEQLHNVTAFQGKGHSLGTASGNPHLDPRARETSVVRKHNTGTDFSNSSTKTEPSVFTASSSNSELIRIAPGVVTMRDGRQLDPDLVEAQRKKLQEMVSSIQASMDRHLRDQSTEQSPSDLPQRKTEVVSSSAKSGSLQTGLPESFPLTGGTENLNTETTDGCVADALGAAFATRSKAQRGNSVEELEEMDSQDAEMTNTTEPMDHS

BAP1 = biological target: T2, BAP1 (Homo sapiens, UniProt Q92560); assay: DUB-ABPP competition with biotin-Ub-PA / biotin-Ub-VME, TMT MS; type: biochemical; conditions: chloroacetamide; 50 µM
T2 construct: endogenous full-length protein in HEK293T lysate
T2 sequence (Q92560 1-729): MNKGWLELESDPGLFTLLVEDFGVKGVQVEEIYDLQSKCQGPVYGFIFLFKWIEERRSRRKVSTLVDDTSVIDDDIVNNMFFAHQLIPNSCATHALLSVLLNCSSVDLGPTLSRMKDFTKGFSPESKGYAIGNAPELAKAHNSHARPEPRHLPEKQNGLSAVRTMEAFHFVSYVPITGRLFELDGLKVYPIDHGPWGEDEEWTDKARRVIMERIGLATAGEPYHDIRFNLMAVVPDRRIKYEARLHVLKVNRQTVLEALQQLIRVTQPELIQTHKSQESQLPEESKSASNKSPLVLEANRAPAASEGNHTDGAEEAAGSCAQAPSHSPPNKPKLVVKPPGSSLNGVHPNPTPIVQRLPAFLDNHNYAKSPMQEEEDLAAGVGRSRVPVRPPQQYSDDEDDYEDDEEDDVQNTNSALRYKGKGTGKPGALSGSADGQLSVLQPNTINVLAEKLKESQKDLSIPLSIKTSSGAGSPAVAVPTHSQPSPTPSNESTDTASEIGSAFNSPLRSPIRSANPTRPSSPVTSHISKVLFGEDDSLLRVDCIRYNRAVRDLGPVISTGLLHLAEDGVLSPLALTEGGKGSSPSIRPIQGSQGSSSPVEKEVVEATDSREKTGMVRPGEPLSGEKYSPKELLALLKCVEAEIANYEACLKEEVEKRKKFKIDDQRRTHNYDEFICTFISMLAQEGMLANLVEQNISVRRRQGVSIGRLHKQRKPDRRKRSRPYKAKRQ

USP22 = biological target: T3, USP22 (Homo sapiens, UniProt Q9UPT9); parameters: ubiquitin-rhodamine cleavage by purified DUB, fluorescence initial rate, 6 h pre-incubation with inhibitor; conditions: n=1; inhibitor
T3 construct: purified enzyme
T3 sequence (Q9UPT9 1-525): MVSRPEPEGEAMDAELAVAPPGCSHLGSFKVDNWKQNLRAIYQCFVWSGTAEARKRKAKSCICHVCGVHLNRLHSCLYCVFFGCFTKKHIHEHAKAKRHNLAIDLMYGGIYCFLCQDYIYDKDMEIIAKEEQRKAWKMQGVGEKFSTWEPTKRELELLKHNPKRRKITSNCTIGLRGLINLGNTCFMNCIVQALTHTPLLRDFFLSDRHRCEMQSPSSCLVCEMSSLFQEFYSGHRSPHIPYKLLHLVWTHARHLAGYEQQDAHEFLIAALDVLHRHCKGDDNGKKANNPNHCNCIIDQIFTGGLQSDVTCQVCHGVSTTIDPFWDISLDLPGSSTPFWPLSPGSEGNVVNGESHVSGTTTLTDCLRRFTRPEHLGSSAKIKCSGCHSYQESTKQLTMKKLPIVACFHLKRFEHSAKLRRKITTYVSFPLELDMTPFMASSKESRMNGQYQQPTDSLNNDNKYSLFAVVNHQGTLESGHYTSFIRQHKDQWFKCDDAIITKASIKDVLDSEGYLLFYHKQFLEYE

USP7 = biological target: T4, USP7 (Homo sapiens, UniProt Q93009); assay: DUB-ABPP competition with biotin-Ub-PA / biotin-Ub-VME, TMT MS; type: biochemical; conditions: covalent inhibitor
T4 construct: endogenous full-length protein in HEK293T lysate

UCHL1 = biological target: T5, UCHL1 (Homo sapiens, UniProt P09936); assay: active-site cysteine modification (in-house validation); type: binding; conditions: covalent
T5 construct: full length residues 1-223, N-terminal GST tag (pGEX6P1), 3C protease elution, E. coli BL21(DE3)
T5 sequence (P09936 1-223): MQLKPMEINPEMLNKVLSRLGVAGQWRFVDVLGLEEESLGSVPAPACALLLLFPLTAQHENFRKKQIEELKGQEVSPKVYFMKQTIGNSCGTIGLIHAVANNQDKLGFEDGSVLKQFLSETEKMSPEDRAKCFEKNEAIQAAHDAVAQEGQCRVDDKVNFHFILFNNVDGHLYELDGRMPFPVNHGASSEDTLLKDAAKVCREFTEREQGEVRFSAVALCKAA

USP40 = biological target: T6, USP40 (Homo sapiens, UniProt Q9NVE5); assay: DUB-ABPP competition with biotin-Ub-PA / biotin-Ub-VME, TMT MS; type: biochemical; conditions: chloroacetamide; 10 µM
T6 construct: endogenous full-length protein in HEK293T lysate
T6 sequence (Q9NVE5 1-1235): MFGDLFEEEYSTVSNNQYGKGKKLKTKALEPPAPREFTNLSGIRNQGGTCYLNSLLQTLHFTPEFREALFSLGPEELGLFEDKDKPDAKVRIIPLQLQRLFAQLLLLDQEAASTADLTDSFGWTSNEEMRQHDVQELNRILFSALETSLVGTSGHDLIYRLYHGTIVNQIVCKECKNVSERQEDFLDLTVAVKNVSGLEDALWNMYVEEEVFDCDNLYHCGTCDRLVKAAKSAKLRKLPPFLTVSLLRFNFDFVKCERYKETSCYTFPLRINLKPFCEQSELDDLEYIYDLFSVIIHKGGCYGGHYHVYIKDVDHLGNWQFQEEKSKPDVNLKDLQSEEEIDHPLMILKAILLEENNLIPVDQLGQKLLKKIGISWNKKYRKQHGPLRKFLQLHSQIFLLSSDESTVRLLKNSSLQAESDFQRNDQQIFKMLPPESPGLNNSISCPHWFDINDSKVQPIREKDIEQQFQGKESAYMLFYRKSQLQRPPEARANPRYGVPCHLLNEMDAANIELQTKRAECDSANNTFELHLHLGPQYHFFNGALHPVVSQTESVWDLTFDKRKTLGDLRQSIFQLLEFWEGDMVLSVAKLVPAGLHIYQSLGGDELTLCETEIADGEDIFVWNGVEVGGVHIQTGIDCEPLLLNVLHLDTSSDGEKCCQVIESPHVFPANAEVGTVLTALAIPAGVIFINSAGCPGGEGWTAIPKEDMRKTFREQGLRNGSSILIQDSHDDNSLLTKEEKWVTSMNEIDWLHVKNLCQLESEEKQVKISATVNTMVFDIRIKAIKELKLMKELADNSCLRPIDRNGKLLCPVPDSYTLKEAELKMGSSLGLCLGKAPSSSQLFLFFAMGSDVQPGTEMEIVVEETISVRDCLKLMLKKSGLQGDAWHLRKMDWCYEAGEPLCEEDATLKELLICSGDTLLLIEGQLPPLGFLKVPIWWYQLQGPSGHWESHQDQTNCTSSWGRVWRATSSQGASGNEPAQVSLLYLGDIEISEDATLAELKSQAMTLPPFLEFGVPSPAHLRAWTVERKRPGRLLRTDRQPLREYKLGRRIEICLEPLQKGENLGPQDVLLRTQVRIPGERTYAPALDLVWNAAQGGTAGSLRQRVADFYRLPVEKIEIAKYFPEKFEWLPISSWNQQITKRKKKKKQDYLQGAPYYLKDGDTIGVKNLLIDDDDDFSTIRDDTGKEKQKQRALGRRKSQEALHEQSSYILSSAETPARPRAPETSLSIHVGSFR

T4 sequence (Q93009 whole entry): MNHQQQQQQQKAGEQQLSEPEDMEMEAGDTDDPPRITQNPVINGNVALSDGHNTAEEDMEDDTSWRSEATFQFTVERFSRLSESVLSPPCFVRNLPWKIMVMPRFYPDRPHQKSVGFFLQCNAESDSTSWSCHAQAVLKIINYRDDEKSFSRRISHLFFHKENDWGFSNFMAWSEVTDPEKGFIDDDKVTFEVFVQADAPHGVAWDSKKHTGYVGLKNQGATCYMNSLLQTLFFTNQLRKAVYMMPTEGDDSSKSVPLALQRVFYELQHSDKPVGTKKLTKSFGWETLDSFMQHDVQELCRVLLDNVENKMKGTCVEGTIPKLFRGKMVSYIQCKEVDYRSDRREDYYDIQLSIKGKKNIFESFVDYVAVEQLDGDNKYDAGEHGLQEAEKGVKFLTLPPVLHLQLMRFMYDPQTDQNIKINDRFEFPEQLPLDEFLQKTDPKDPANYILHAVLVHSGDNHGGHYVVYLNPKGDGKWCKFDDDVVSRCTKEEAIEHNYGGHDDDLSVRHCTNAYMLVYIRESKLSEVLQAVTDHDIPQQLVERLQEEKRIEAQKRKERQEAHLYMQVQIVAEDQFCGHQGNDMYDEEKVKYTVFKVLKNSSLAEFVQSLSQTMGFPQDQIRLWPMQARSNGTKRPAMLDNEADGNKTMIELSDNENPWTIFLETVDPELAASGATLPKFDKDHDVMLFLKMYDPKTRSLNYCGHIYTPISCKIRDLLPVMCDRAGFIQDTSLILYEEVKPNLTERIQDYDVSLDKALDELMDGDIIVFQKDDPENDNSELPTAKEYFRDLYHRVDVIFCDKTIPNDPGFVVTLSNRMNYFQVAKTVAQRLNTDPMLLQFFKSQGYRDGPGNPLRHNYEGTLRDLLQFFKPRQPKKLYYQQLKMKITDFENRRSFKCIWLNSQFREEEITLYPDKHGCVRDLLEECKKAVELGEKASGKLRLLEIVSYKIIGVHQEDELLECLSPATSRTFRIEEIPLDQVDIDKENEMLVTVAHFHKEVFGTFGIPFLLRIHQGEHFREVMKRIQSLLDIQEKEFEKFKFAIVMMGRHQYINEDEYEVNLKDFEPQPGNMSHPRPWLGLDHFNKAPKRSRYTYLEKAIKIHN

O=C(NCC1CN(C(=O)CCl)C1)c1ccccc1 [WH-9943-103C]
% target occupancy at 50 μM (VCPIP1): ~ 78%
DUB-ABPP competition with biotin-Ub-PA / biotin-Ub-VME, TMT MS (BAP1): hit several DUBs including VCPIP1 (WH-9943-103C), BAP1 (WH-9943-103C)

O=C(CCl)N1CCC(O)(CNc2ncc3ccccc3n2)CC1 [XL_10320_009A]
pIC50 (USP22): 4.03

CN1CCN(CCC(=O)Nc2ccc3c(=O)n(CC4(O)CCN(C(=O)[C@@H](CCCNC(=O)c5ccc6c(Cl)c7c(nc6c5)CCCC7)Cc5ccccc5)CC4)cnc3c2)CC1 [XL177A]
DUB-ABPP competition with biotin-Ub-PA / biotin-Ub-VME, TMT MS (USP7): recapitulated the DUB binding profiles expected for our selective chemotypes

N#CN1CCC(C(=O)Nc2cn(Cc3ccccc3)cn2)C1 (stereo not drawn) [SB1-F-22]
active-site cysteine modification (in-house validation) (UCHL1): validated in-house to modify the active site cysteine of UCHL1

COc1ccc(C(=O)NCC2CN(C(=O)CCl)C2)cc1 [V08]
DUB-ABPP competition with biotin-Ub-PA / biotin-Ub-VME, TMT MS (USP40): USP16 (V03), and USP40 (V08, V09)
